# Measurements as given in PMC9569649, “Naked and Decorated Nanoparticles Containing H2S-Releasing Doxorubicin: Preparation, Characterization and Assessment of Their Antitumoral Efficiency on Various Resistant Tumor Cells” (International Journal of Molecular Sciences, 2022).
# Structures can show the parent of a compound that is named as a salt. Where two headings read alike, the source gives them in different places.
# Legend:
# [1] = tested on: JC cells; assay: Acute cytotoxicity (release of LDH); format: cell-based, murine; settings: JC (resistant); 24 h, 5 µM
# Experimental: (§1) In each of the following experimental sets, cells were incubated with specific dilutions of NPs to reach a final concentration of 5 μM H2S-DOXO, or with 5 μM DOXO or H2S-DOXO, as reference. Samples under study were: free DOXO, free H2S-DOXO, NP-H2S-DOXO 3% PVP, and HA-NP-CTAB-H2S-DOXO. Acute cytotoxicity. Culture medium from 2 × 10^6 cellule was centrifuged at 12,000 g for 15 min to pellet cell debris, while cells were washed with PBS twice, detached with trypsin/EDTA (0.05/0.02% v/v), rinsed in 0.2 mL of 82.3 mM triethanolamine phosphate-HCl (pH 7.6), and sonicated in ice with 10 s (100 W, Sonicator Labsonic); 5 μL of cell lysate was used to measure the intracellular protein content (BCA1 kit). The activity of extracellular lactate dehydrogenase (LDH), considered as an index of DOXO acute cell damage, was measured on 50 μL of cell culture medium, incubated at 37 °C with […]. The same assay was performed on 5 μL of cell lysate, to measure intracellular LDH. The kinetics of NADH oxidation was followed for 6 min measuring the absorbance at 340 nm with a Synergy HTX 96-well reader (Bio-Tek Instruments). The kinetics was linear overtime. Results were expressed as % extracellular LDH/total (extracellular+intracellular) LDH.
# [2] = tested on: K7M2 cells; assay: Acute cytotoxicity (release of LDH); format: cell-based, murine; settings: K7M2 (resistant); 24 h, 5 µM
# Experimental: as §1
# [3] = tested on: JC cells; assay: Cell viability (ATPLite); format: cell-based, murine; settings: JC (resistant); 72 h, 5 µM
# Experimental: (§2) In each of the following experimental sets, cells were incubated with specific dilutions of NPs to reach a final concentration of 5 μM H2S-DOXO, or with 5 μM DOXO or H2S-DOXO, as reference. Samples under study were: free DOXO, free H2S-DOXO, NP-H2S-DOXO 3% PVP, and HA-NP-CTAB-H2S-DOXO. Viability. 1 × 10^5 cells were seeded in 96 well plates and incubated for 72 h with DOXO, H2S-DOXO or the different NPs. Cell viability was evaluated using the ATPLite kit (PerkinElmer, Waltham, MA), as per manufacturer’s instructions, using a Synergy-HTX 96-well reader (Bio-Tek Instruments, Winooski, VT). The relative luminescence units (RLUs) of the untreated cells were considered 100%; the RLUs of the other experimental conditions were expressed as percentage versus untreated cells.
# [4] = tested on: K7M2 cells; assay: Cell viability (ATPLite); format: cell-based, murine; settings: K7M2 (resistant); 72 h, 5 µM
# Experimental: as §2
# [5] = In vitro drug release (dialysis method); format: physicochemical; settings: PBS pH 7.4, 37 °C, reference: 20% propylene glycol aqueous solution
# Experimental: In vitro drug release. Release of H2S-DOXO from NPs was evaluated using the dialysis method. An aliquot of HA-NP-CTAB-H2S-DOXO was placed in a dialysis bag, and the dialysis bag, sealed at the ends, was immersed into 40 mL of phosphate buffered saline (PBS, pH 7.4) at 37 °C stirring at 100 rpm. At predetermined time intervals, 1 mL PBS was withdrawn and replaced with an equal volume of fresh PBS. Release was monitored for 5 h. The overtime released H2S-DOXO was analyzed by RP-HPLC. As a reference, a 20% propylene glycol aqueous solution of H2S-DOXO was used.
# [6] = design: method as in PMID 23973213; settings: human serum; pseudo-first-order kinetics; cited from earlier work
# [7] = H2S-DOXO stability in the presence of microemulsion ingredients (RP-HPLC); format: physicochemical; settings: water/acetonitrile 60/40 v/v; for Residual Concentration % t24: 24 h
# Experimental: The chemical stability of H2S-DOXO in water/acetonitrile 60/40 v/v in the presence of µE ingredients, at the same ratio (w/w) used in the µE, was tested to select the suitable ingredients and to ensure the integrity of H2S-DOXO into the formulation. In Table 3, the stability at t0 and t24 h (t24) is expressed as percent of residual concentration in the presence of ingredients compared with that without ingredients at t0 (100%).
# H2S-DOXO stability in water/acetonitrile (60/40 v/v ratio) in the presence of NaTC, NaGC, lecithin (phosphatidylcoline 95–98%), ST, CTAB, and Cremophor®RH60 was determined at t0 and after 24 h (t24) by RP-HPLC comparing the drug concentration with that in water/acetonitrile solution at t0, assuming it as 100%.
# [8] = H2S-DOXO solubility in aqueous and organic solvent; format: physicochemical; settings: room temperature (22–23 °C)
# Experimental: The solubility of H2S-DOXO in water/acetonitrile (60/40 v/v ratio), methanol, 0.1 M pH 7.2 phosphate buffer, propylene glycol, and benzyl alcohol was determined as follows: an excess of H2S-DOXO was added to the organic or aqueous solution (1 mL); after 2-h equilibration at room temperature (22–23 °C) in a sealed vial under 600 rpm magnetic stirring, the suspension was centrifuged at 1397× g for 10 min, and the supernatant solution analyzed by RP-HPLC. The time needed to reach equilibrium solubility was determined by analyzing samples of the equilibrating solution at different time points to establish constant drug solubility.
# [9] = H2S-DOXO stability in solvents (RP-HPLC); format: physicochemical; settings: 30-day storage at 4 °C, vs t0 (100%)
# Experimental: The chemical stability of H2S-DOXO in water/acetonitrile 60/40 v/v (mobile phase for HPLC analysis) and in methanol (solvent used for extraction from NPs to determining EE%) was tested by RP-HPLC after 30-day storage (t30). In Table 2, the stability was expressed as a percentage of residual concentration at t30 compared with the concentration at t0 (100%).
# H2S-DOXO stability in water/acetonitrile (60/40 v/v ratio) and methanol was determined after 30-day (t30) storage at 4 °C following the drug concentration over time by RP-HPLC and comparing it with the concentration at t0, assuming it as 100%.
# [10] = tested on: DU-145 cells; settings: cited from earlier work
# [11] = tested on: MDA-MB-231 cells; assay: Acute cytotoxicity (release of LDH); format: cell-based, human; settings: MDA-MB-231 (resistant); 24 h, 5 µM
# Experimental: as §1
# [12] = tested on: U-2OS/DX580 cells; assay: Acute cytotoxicity (release of LDH); format: cell-based, human; settings: U-2OS/DX580 (resistant); 24 h, 5 µM
# Experimental: as §1
# [13] = tested on: MCF-7 cells; assay: Acute cytotoxicity (release of LDH); format: cell-based, human; settings: MCF-7 (sensitive); 24 h, 5 µM
# Experimental: as §1
# [14] = tested on: U-2OS cells; assay: Acute cytotoxicity (release of LDH); format: cell-based, human; settings: U-2OS (sensitive); 24 h, 5 µM
# Experimental: as §1
# [15] = tested on: MDA-MB-231 cells; assay: Cell viability (ATPLite); format: cell-based, human; settings: MDA-MB-231 (resistant); 72 h, 5 µM
# Experimental: as §2
# [16] = tested on: U-2OS/DX580 cells; assay: Cell viability (ATPLite); format: cell-based, human; settings: U-2OS/DX580 (resistant); 72 h, 5 µM
# Experimental: as §2
# [17] = tested on: MCF-7 cells; assay: Cell viability (ATPLite); format: cell-based, human; settings: MCF-7 (sensitive); 72 h, 5 µM
# Experimental: as §2
# [18] = tested on: U-2OS cells; assay: Cell viability (ATPLite); format: cell-based, human; settings: U-2OS (sensitive); 72 h, 5 µM
# Experimental: as §2
# [19] = tested on: DU-145 prostate cancer cell line; design: method as in PMID 29607467; settings: androgen-independent, DOXO-resistant DU-145; cited from earlier work
# [20] = tested on: K7M2 tumor; design: method as in PMID 31047947; settings: cited from earlier work
# [21] = 3-week injection, nude mice with subcutaneous DU-145 cells
smiles,measurement,setting,value
"COc1cccc2c1C(=O)c1c(O)c3c(c(O)c1C2=O)C[C@@](O)(C(=O)COC(=O)c1ccc(-c2ssc(=S)c2-c2ccccc2)cc1)C[C@@H]3O[C@H]1C[C@H](N)[C@H](O)[C@H](C)O1 [H2S-DOXO, doxorubicin 14-[4-(4-phenyl-5-thioxo-5H-[1,2]dithiol-3-yl)]-benzoate]","acute toxicity, release of LDH",[1],induced a significant release of LDH
same,"acute toxicity, release of LDH",[2],induced a significant release of LDH
same,"subacute toxicity, reduced cell viability",[3],significantly more effective than DOXO
same,"subacute toxicity, reduced cell viability",[4],significantly more effective than DOXO
same,H2S-DOXO release in 5 h,[5],~100%
same,t1/2 of hydrolysis,[6],2.8 h
same,Residual Concentration % t24,[7]; in presence of CTAB,100%
same,Residual Concentration % t0,[7]; in presence of CTAB,100%
same,Residual Concentration % t24,[7]; in presence of Cremophor RH60,0%
same,Residual Concentration % t0,[7]; in presence of Cremophor RH60,5%
same,Residual Concentration % t24,[7]; in presence of Epikuron 200,100%
same,Residual Concentration % t0,[7]; in presence of Epikuron 200,100%
same,Residual Concentration % t24,[7]; in presence of NaGC,98%
same,Residual Concentration % t0,[7]; in presence of NaGC,100%
same,Residual Concentration % t24,[7]; in presence of NaTC,0%
same,Residual Concentration % t0,[7]; in presence of NaTC,34%
same,Residual Concentration % t24,[7]; in presence of ST,14%
same,Residual Concentration % t0,[7]; in presence of ST,44%
same,Solubility,[8]; benzyl alcohol,1400 ± 700 µg/mL
same,Solubility,[8]; methanol,3820 ± 300 µg/mL
same,Solubility,[8]; pH 7.2 phosphate buffer (0.1 M),30 ± 10 µg/mL
same,Solubility,[8]; propylene glycol,2830 ± 300 µg/mL
same,Solubility,[8]; water/acetonitrile (60/40 v/v),3400 ± 500 µg/mL
same,Residual Concentration % t30,[9]; methanol,98.7%
same,Residual Concentration % t30,[9]; water/acetonitrile (60/40 v/v),97.3%
same,percentage of apoptotic cells,[10]; [21],an increase in the percentage of apoptotic cells
same,reduction in tumor volume,[10]; [21],60%
same,tolerability / safety profile,[10]; nude mice with subcutaneous DU-145 cells,well tolerated and had a better safety profile
same,"acute toxicity, release of LDH",[11],induced a significant release of LDH
same,"acute toxicity, release of LDH",[12],induced a significant release of LDH
same,"acute toxicity, release of LDH",[13],comparable
same,"acute toxicity, release of LDH",[14],comparable
same,"subacute toxicity, reduced cell viability",[15],significantly more effective than DOXO
same,"subacute toxicity, reduced cell viability",[16],significantly more effective than DOXO
same,"subacute toxicity, reduced cell viability",[17],did not offer any further advantage compared to DOXO
same,"subacute toxicity, reduced cell viability",[18],did not offer any further advantage compared to DOXO
same,cytotoxicity,[19],high cytotoxicity
same,intracellular accumulation,[19],good intracellular accumulation
"COc1cccc2c1C(=O)c1c(O)c3c(c(O)c1C2=O)C[C@@](O)(C(=O)CO)C[C@@H]3O[C@H]1C[C@H](N)[C@H](O)[C@H](C)O1 [DOXO, doxorubicin hydrochloride]","acute toxicity, release of LDH",[1],devoid of any cytotoxic effects
same,"acute toxicity, release of LDH",[2],devoid of any cytotoxic effects
same,"subacute toxicity, reduced cell viability",[3],ineffective
same,"subacute toxicity, reduced cell viability",[4],ineffective
same,tumor growth,[20]; K7M2 tumors (CD44- and Pgp-overexpressing),neither DOXO nor Caelyx® reduced the growth of these tumors
same,apoptosis / caspase-3 activation in the tumor,[20]; K7M2 tumors,nor did they induce apoptosis in the tumor
same,tolerability / safety profile,"[10]; mouse, in vivo, sc",associated with weight loss and cardiotoxicity
same,"acute toxicity, release of LDH",[11],devoid of any cytotoxic effects
same,"acute toxicity, release of LDH",[12],devoid of any cytotoxic effects
same,"acute toxicity, release of LDH",[13],comparable
same,"acute toxicity, release of LDH",[14],comparable
same,"subacute toxicity, reduced cell viability",[15],ineffective
same,"subacute toxicity, reduced cell viability",[16],ineffective
